Test results: patent EP0974573A1, “PHENYLPROPENONE COMPOUNDS AND MEDICINES CONTAINING THE SAME” (Kabushiki Kaisha Yakult Honsha, priority 1997, dated 1998)

What was measured:
[1] = tested on: rat-derived ACAT; test: Inhibitory effects on rat-derived ACAT (Test 1); type: biochemical; settings: crude enzyme from microsome protein fractions of rat liver, (14C)-oleoyl-CoA substrate, 37°C
Description: To test effects on ACAT, a reaction was conducted in vitro to form (^14C)-cholesteryl oleate from endogeneous cholesterol in the presence of (^14C)-oleoyl-CoA as a substrate by using a crude enzyme prepared from microzome protein fractions of a rat liver.
The reaction mixture had the following composition: 20 µℓ of microsome protein (1.83 mg/mℓ), 20 µℓ of (^14C)-oleoyl-CoA (5 µCi/mℓ, BSA: 96 nmol/mℓ), 106 µℓ of 100 mM phosphate buffer (containing 5 mM of dithiothreitol, pH 7.4) and a sample dissolved in 4 µℓ of methanol or dimethyl sulfoxide; 150 µℓ in total.
The reaction was conducted at 37°C. After an elapse of a predetermined reaction time (18 minutes in general), a 2:1 mixture of chloroform and methanol (5.65 mℓ) was added to terminate the reaction. A 0.04 N aquous solution of hydrochloric acid (0.98 mℓ) and as a carrier, cholesteryl oleate were added, followed by extraction for 20 minutes on a shaking apparatus. The mixture was then allowed to stand overnight in a cold dark place. On the following day, the separated lower chloroform layer was extracted in its entirety and was dried under a nitrogen gas stream. The remaining upper layer was added with the lower layer (5.65 mℓ) of the Folch's partition solution, and was extracted again. After the mixture was allowed to stand overnight in a dark place, the lower layer was drawn in its entirety. This lower layer was combined with the lower chloroform layer fraction, which had already been dried to solid, and the mixture was then dried to solid.
The solid was then dissolved in chlorofrom (200 µℓ), and the solution was coated in its entirety on a G60 plate (aluminum sheet) for silica gel thin layer chromatography. After the solid was developedover 10 cm with a 10:190 mixture of diethyl ether and petroleum ether, autoradiography was conducted and the formation of (^14C)-colesteryl oleate was confirmed. This section was then cut off. The radioactivity of each sample was measured by subjecting it to liquid scintillation counting for 5 minutes in toluene or was measured for 30 minutes by a "Betascope" (manufactured by BETA-GEN INC. The results so obtained are shown in Table 1. Table 1

[2] = tested on: SD rats; test: Plasma cholesterol elevation inhibitory effects on rats loaded with high cholesterol diet, feed-mixed administration (Test 3); type: in vivo, rat; settings: 0.005% of compound added to hyperlipemia inducing diet, ad libitum 3 days
Source text: Using 5-week old male SD rats (120-150 g, 10 rats per group, individual feeding), plasma cholesterol elevation inhibitory effects of various compounds in the Examples on rats were studied. To a control group, a feed which had been prepared by adding 1.5% of cholesterol, 0.5% of cholic acid, 10% of coconut oil and 10% of sugar to "F-2 Diet" (product of FUNABASHI FARM CO., LTD.) was given ad libitum as a hyperlipemia inducing diet.
To each test-compound-administered group, on the other hand, a feed which had been prepared by adding 0.005% of the corresponding compound in the Examples to the hyperlipemia inducing diet of the above-described composition was given ad libitum. Further, a normal diet group to which a feed similar to the hyperlipemia inducing diet except for the exclusion of cholesterol was also tested similarly. As a testing method, after these feeds were given ad libitum for 3 days, bloods were drawn on the 4th day from the abdominal aortas of the individual rats under anesthesia with Nembutal. Subsequent to collection of plasma from each blood sample, the plasma cholesterol was quantitated by a "DETERMINER TC555 KIT" (product of Kyowa Medex Co., Ltd.) while the HDL cholesterol was quantitated by "DETERMINER HDL KIT" (product of Kyowa Medex Co., Ltd.). The liver cholesterol was measured by extracting it in accordance with the Folch's method and then measuring it with a "DETERMINER TC555 KIT". Statistical processing of the data so obtained was conducted by the Danett's test.

[3] = tested on: SD rats; test: Plasma cholesterol elevation inhibitory effects of Compound 6 on rats, oral suspension in carboxymethylcellulose (Test 10); type: in vivo, rat; settings: 7 days; for HDLC: plasma HDL cholesterol; for PL: plasma phospholipid; for TC: plasma total cholesterol; for TG: plasma triglyceride
Source text: Using 5-week old male SD rats (120-150 g, 8 rats per group, group feeding), plasma cholesterol elevation inhibitory effects of compound 6 in Examples on rats were studied.
To rats in a control group, only a 1.5% aqueous solution of carboxymethylcellulose was orally administered once a day for 7 days. During the last 3 days, a hyperlipemia inducing diet [a feed prepared by adding 1.5% of cholesterol, 0.5% of cholic acid, 10% of coconut oil and 10% of sugar to "F-2 Diet" (product of FUNABASHI FARM CO., LTD.)] was given ad libitum. To rats in a control group (normal diet), however, a feed (normal diet) similar to the hyperlipemia inducing diet except for the exclusion of cholesterol was given ad libitum.
To test-compound-administered groups, on the other hand, compound 6 suspended in a 1.5% aqueous solution of carboxymethylcellulose was continuously and orally administered at dosages of 5, 10 and 20 mg/kg/day, respectively, once a day for 7 days. During the last 3 days, a hyperlipemia inducing diet [a feed prepared by adding 1.5% of cholesterol, 0.5% of cholic acid, 10% of coconut oil and 10% of sugar to "F-2 Diet" (product of FUNABASHI FARM CO., LTD.)] was given ad libitum.
On the 4th day after the initiation of feeding of the hyperlipemia inducing diet and the normal diet, bloods were drawn from the abdominal aortas of the individual rats under anesthesia with Nembutal. Subsequent to collection of plasma from each blood sample, the plasma cholesterol was quantitated by an "AUTOSERA S-CHO KIT" (product of Daiichi Pure Chemicals Co., Ltd.), the plasma triglyceride was guantitated by an "AUTOSERA TG-N KIT" (product of Daiichi Pure Chemicals Co., Ltd.), and the plasma phospholipid was quantitated by an "AUTOSERA PL KIT" (product of Daiichi Pure Chemicals Co., Ltd.). Further, the HDL cholesterol was quantitated by an "AUTOSERA S-CHO KIT" (product of Daiichi Pure Chemicals Co., Ltd.) after fractionating it by a "DETERMINER HDL KIT" (product of Kyowa Medex Co., Ltd.). The liver lipid level was quantitated by a commercial measuring kit in a similar manner as in the measurement of plasma lipid subsequent to its extraction by the Folch's method. Statistical processing of the data so obtained was conducted by the Dunnet's test.

[4] = tested on: SD rats; test: Provisional toxicity test of Compound 6; type: in vivo, rat; settings: female SD rats, oral by stomach tube in 1.5% CMC, 14 days or 28 days, 100, 250 or 250 mg/kg/day
Description: Concerning Compound 6, a provisional toxicity test was conducted.
Using female SD rats (5-weeks old), the test was conducted at a size of 6 rats per group. The animals were subjected to group feeding, and were allowed to take both "F-2 Feed" (product of FUNABASHI FARM CO., LTD.) and tap water ad libitum.
Compound 6 which had been suspended in a 1.5% aqueous solution of CMC was continuously and orally administered by a stomach tube for 14 days or 28 days such that the dosage became 100, 250 or 250 mg/kg/day. To a control group, on the other hand, an aqueous solution of CMC was administered.
Therefore, safety has been confirmed.

[5] = 5 mg/kg oral in carboxymethylcellulose
[6] = 10 mg/kg oral in carboxymethylcellulose
[7] = 20 mg/kg oral in carboxymethylcellulose

In the case of CCCCCCCCOc1c(OC)cc(/C=C/C(=O)NN2CCN(c3ccc(C)c(C)c3)CC2)cc1OC [Compound 6, N-[4-(3,4-dimethylphenyl)-1,4-diazacyclohexyl]-(2E)-3-(3,5-dimethoxy-4-octyloxyphenyl)-2-propenamide], the IC50 [1] is reported as 11 nM, the “Inhibitory rate (%) of plasma total cholesterol elevation in rat” value [2] is reported as 79% and the “Inhibitory rate (%) of plasma total cholesterol elevation” value ([3]; 5 mg/kg/day oral in 1.5% carboxymethylcellulose) is reported as 34%. The “Inhibitory rate (%) of plasma total cholesterol elevation” value ([3]; 10 mg/kg/day oral in 1.5% carboxymethylcellulose) was 57%, the “Inhibitory rate (%) of plasma total cholesterol elevation” value ([3]; 20 mg/kg/day oral in 1.5% carboxymethylcellulose) was 66% and the “HDLC” value [3, 5] was 19.3 ± 4.5 mg/dL. For the same compound, the “HDLC” value [3, 6] was 20.5 ± 4.0 mg/dL, the “HDLC” value [3, 7] was 22.8 ± 2.2 mg/dL and the “PL” value [3, 5] was 243.2 ± 42.5 mg/dL. The “PL” value [3, 6] was 206.7 ± 50.6 mg/dL, the “PL” value [3, 7] was 203.6 ± 21.3 mg/dL and the “TC” value [3, 5] was 303.1 ± 99.4 mg/dL. The “TC” value [3, 6] was 226.6 ± 94.7 mg/dL, the “TC” value [3, 7] was 196.8 ± 44.1 mg/dL and the “TG” value [3, 5] was 202.3 ± 99.7 mg/dL. For the same compound, the “TG” value [3, 6] was 159.0 ± 68.6 mg/dL, the “TG” value [3, 7] was 187.6 ± 79.3 mg/dL and the “difference between administered groups and control group in external appearance and results of various biochemical tests” value [4] was “no difference was observed”.
